US20200009221A1, “METHODS FOR INHIBITING NECROSIS” (priority 2010, published 2020)
Residues, ends and D or L forms follow the SMILES beside them. *: point of attachment. MeOSuc = COC(=O)CCC(=O)*; CH2Cl = ClC*

Key:
Type in all cases: cell-based
U937 cells [1] = experiment: KCN (15 mM)-induced necrosis in U937 cells, LDH release assay, Humanin derivative with Elastase inhibitor III (Example 2); details: 7 hours
Protocol: (§1) The U937 cells are p53 minus monocytic cell line. The cells were grown at 37° C. in the presence of 5% CO2 in RPMI-1640 medium supplemented with 10% heat-inactivated fetal bovine serum (FCS), 2 Mm glutamine, 100 μg/ml penicillin, and 100 μg/ml streptomycin. The cells were split every third day.
U937 cells were cultured in complete RPMI-1640 medium, washed once and seeded at 4.5×10^5 cells/ml in glucose free medium 1 hour before treatment. Humanin or its derivatives of SEQ ID MOs 1-6 and Elastase inhibitor III (EI-III) and vehicle were added 30 minutes before the addition of KCN (15 mM). Following the treatment, the cells were incubated for 7 hours and cell death was measured via the LDH release assay.
(§2) The amount of LDH released from lysed cells is a sensitive measure of cell death. In this study, necrotic cell death was measured in 96-well plates using Promega's CytoTox 96 Non-Radioactive Cytotoxicity Assay kit, which accurately and rapidly measures cell death by quantitating the release of lactate dehydrogenase (LDH), a stable cytosolic enzyme from lysed cells.
(§3) At the end of each experiment, the cells were centrifuged at 240×g for 10 minutes at room temperature. Next, the supernatant was collected and 50 μL aliquots were taken for the LDH release assay. The LDH content from cells lysed in 0.1% Tryton X-100 for 10-15 minutes was used as a measure for total LDH content. The LDH released in the treatment (after subtracting the blank measure) was used for measuring necrotic cell death as a percentage from total LDH. A measurement of the absorbance value at 490 nm was preformed by ELISA READER, 30 minutes after the addition of the LDH reaction solution.

U937 cells [2] = experiment: KCN (5 mM)-induced necrosis in U937 cells, LDH release assay, Humanin derivative with Mimosine (Example 3); details: 7 hours
Protocol: as §1
U937 cells were cultured in complete RPMI-1640 medium, washed once and seeded at 4.5×10^5 cells/ml in glucose free medium 1 hour before treatment. Humanin or its derivatives of SEQ ID MOs 1-6 and Mimosine and vehicle were added 30 minutes before the addition of KCN (5 mM). Following the treatment, the cells were incubated for 7 hours and cell death was measured via the LDH release assay.
as §2, §3

U-937 cells = experiment: KCN-induced necrosis in U-937 cells, LDH release (Example 1); details: 10 μM peptide, LDH release after 7 hours (FIG. 1)
Protocol: FIGS. 1A-1B. […] LDH release was measured after 7 hours (see, FIG. 1A) % LDH release with the crude data; (see, FIG. 1B) The amount of LDH released of control cells was subtracted from all treatments, P*<0.02. […] The effects of HN and its derivatives on necrotic cell death induced by staurosporine/oligomicyn in PC12 cells are depicted in FIG. 4 (by LDH release) and FIG. 5 (ethydium bromide and acridine orange staining).

PC12 cells = experiment: KCN-induced necrosis in PC12 cells, LDH release; details: LDH release after 5 hours (FIG. 2 and FIG. 3)
Protocol: FIGS. 2A-2B. […] LDH release was measured after 5 hours (see, FIG. 2A) % LDH release with the crude data; (see, FIG. 2B) The amount of LDH released from control cells was subtracted from all treatments, P*<0.05. FIG. 3. Is a bar graph showing the effect of different HN17 concentrations on KCN-induced necrosis in PC12 cells as assessed by the determination of LDH release. PC12 cells were treated with or without 7 mM KCN for 5 hours in the presence or absence of different concentrations of HN17 (1-30 μM), and then LDH release from the cells was determined, P*<0.04. […] The effects of HN and its derivatives on necrotic cell death induced by staurosporine/oligomicyn in PC12 cells are depicted in FIG. 4 (by LDH release) and FIG. 5 (ethydium bromide and acridine orange staining).

Molecule: COC(=O)CCC(=O)N[C@@H](C)C(=O)N[C@@H](C)C(=O)N1CCC[C@H]1C(=O)N[C@H](C(=O)CCl)C(C)C [EI-III, HLE Inhibitor MeOSuc-AAPV-CMK] (MeOSuc-AAPV-CH2Cl)
- impact on necrotic cell death induced by KCN (U937 cells [1]; EI-III at 50 μM): no impact
- inhibition of cell death by necrosis (U937 cells [1]; EI-III at 100 μM): 75%
- inhibition of cell death by necrosis (U937 cells [1]; EI-III at 300 μM): 75%

Molecule: NC(Cn1ccc(=O)c(O)c1)C(=O)O (centres unmarked) [mimosine, Mimosine, reference compound]
- inhibition of necrotic cell death (U937 cells [2]; mimosine at 30 μM): no inhibition
- inhibition of necrotic cell death (U937 cells [2]; mimosine at 70 μM): no inhibition
- inhibition of cell death by necrosis (U937 cells [2]; mimosine at 300 μM): 12%

Molecule: PRGFSCLLLLTSEIDLP [HN17, Humanin derivative; the short name HN17 is also printed for AGA-C8R-HNG17]
- protection against KCN-induced necrotic cell death as measured by LDH release (U-937 cells): conferred protection
- protection against KCN-induced necrotic cell death as measured by LDH release (PC12 cells): confers protection

Molecule: MAPAGASCLLLLTGEIDLPVKRRA [AGA-HNG, Humanin derivative]
- protection against KCN-induced necrotic cell death as measured by LDH release (U-937 cells): conferred protection
- impact on necrotic cell death induced by KCN (U937 cells [1]; AGA-HNG at 1 μM): no impact
- impact on necrotic cell death induced by KCN (U937 cells [1]; AGA-HNG at 10 μM): no impact

Molecule: MAPRGFSCLLLLTGEIDLPVKRRA [HNG, Humanin derivative]
- inhibition of necrotic cell death (U937 cells [2]; HNG at 1 μM): no inhibition
- inhibition of necrotic cell death (U937 cells [2]; HNG at 10 μM): no inhibition
- inhibition of necrotic cell death (U937 cells [2]; HNG at 301 μM): no inhibition
